US7999011B2, “Method for cardioprotection and neuroprotection by intravenous administration of halogenated volatile anesthetics” (Baxter International Inc., priority 2002, dated 2011)

Legend:
[1] = Systemic hemodynamics during infarct experiment; assay type: in vivo, rabbit
Experimental: (§1) Male New Zealand white rabbits weighing between 2.5 and 3.0 kg were anesthetized with intravenous sodium pentobarbital (30 mg/kg). Additional doses of pentobarbital were titrated as required to assure that pedal and palpebral reflexes were absent throughout the experiment. A tracheotomy was performed through a ventral midline incision, and the trachea was cannulated. The rabbits were ventilated with positive pressure using an air-oxygen mixture (FiO2=0.33). […] Body temperature was maintained with a heating blanket. Heparin-filled catheters were inserted into the right carotid artery and the left jugular vein for measurement of arterial blood pressure and fluid or drug administration, respectively. Maintenance fluids consisted of 0.9% saline (15 ml/kg/h) that were continued for the duration of the experiment.
A left thoracotomy was performed at the fourth intercostal space, and the heart was suspended in a pericardial cradle. A prominent branch of the left anterior descending coronary artery (LAD) was selected, and a silk ligature was placed around this artery approximately halfway between the base and apex for the production of coronary artery occlusion and reperfusion in myocardial infarct size experiments. Each rabbit was anticoagulated with 500 U of heparin immediately before LAD occlusion. Coronary artery occlusion was verified by the presence of epicardial cyanosis and regional dyskinesia in the ischemic zone, and reperfusion was confirmed by observing an epicardial hyperemic response. Hemodynamics were continuously recorded on a polygraph throughout experimentation. After the surgical preparation, 30 min of stabilization were allowed.
(§2) Baseline measurements of systemic hemodynamics, arterial blood gas tensions, and blood concentrations of anesthetic agent were performed 30 min after instrumentation was completed. Rabbits received 0.9% saline, drug lipid vehicle (10 ml/h), or intravenous volatile anesthetic (10 ml/h) for 30 min. Infusions were discontinued 30 min prior to coronary occlusion (memory period). Blood concentrations of anesthetic agents were performed at baseline, at the end of anesthetic infusion, and at the end of the memory period just before coronary occlusion). HVA concentrations in blood were determined by gas chromatographic (GC) analysis. All rabbits underwent a 30 min LAD occlusion followed by 3 h reperfusion.
(§3) Statistical analysis of data within and between groups was performed with analysis of variance (ANOVA) for repeated measures followed by Student-Newman-Keuls test. Changes between groups were considered statistically significant when the p value was less than 0.05. All data are expressed as mean±SEM.

[2] = Arterial blood gas analysis; assay type: in vivo, rabbit; details: for pH: arterial blood
Experimental: as §1, §2, §3

End-tidal gas analysis = assay type: in vivo, rabbit; details: for EtHalogenated: end-tidal
Experimental: as §2, §3

[3] = Blood concentration of anesthetics by GC and conversion to MAC-equivalents; assay type: in vivo, rabbit
Experimental: as §2
Blood concentrations as measured by GC were converted to their MAC-equivalent values by calculations described below. Initially “n”, or the number of moles of HVA in 1 L of alveolar gas during exposure to 1.0 MAC of the HVA was calculated. The ideal gas law n=PV/RT is used to calculate the number of moles of HVA present at 1 MAC in the alveolar gas where: V=1 L, T=273+37=310° (K); and R=0.0821 (universal gas constant). P or pressure was determined taking into account the vapor pressure of water at 37° C. which is 47.1 torr, and the volume percent of the HVA. Volume percentages of HVAs (MAC values) were obtained from literature values determined in rabbits (Scheller et al. Can. J. Anaesth. 1988, 35: 133-136; Drummond, J C Anesthesiology 1985; 62: 336-8, and Doorley et al. Anesthesiology 1988; 69, 89-91), and are presented in Table 8.
The number of moles of the HVA in 1 L at 37° C. at 1 MAC in rabbits was then used to determine the concentration of the HVA present in blood by using known blood/gas partition values (also known as λ). Blood gas partition values for the HVAs used in the study are show in Table 8. The value for “x” (or the equivalent blood concentration of the HVA at 1 MAC at 37° C. in rabbit) is then determined by the equation: x=λn
To express a measured blood concentration of an HVA as a MAC-equivalent value, the measured blood concentration is divided by x. The MAC equivalent values shown in Table 8 were calculated according to the above from the blood concentrations observed (see Table 7).

[4] = blood/gas; cited from earlier work
[5] = i.v. emulsion 10 ml/h for 30 min, Baseline
[6] = Infusion (end of 30 min, 10 ml/h i.v. infusion)
[7] = Memory (30 min after infusion, just before coronary occlusion)
[8] = measured blood concentration divided by x

For FC(F)OC(F)C(F)(F)F (stereo not shown) [DES, desflurane], the MAP ([1]; Baseline) was 71 ± 8 mmHg, the HR ([1]; Infusion) was 253 ± 9 bpm and the MAP ([1]; Infusion) was 67 ± 9 mmHg. The RPP ([1]; Infusion) was 20.4 ± 2.8 bpm × mmHg × 10^3, the HR ([1]; Ischemia 30 min) was 228 ± 7 bpm and the MAP ([1]; Ischemia 30 min) was 53 ± 8 mmHg. For the same compound, the RPP ([1]; Ischemia 30 min) was 14.5 ± 2 bpm × mmHg × 10^3, the HR ([1]; Memory) was 231 ± 9 bpm and the MAP ([1]; Memory) was 58 ± 10 mmHg. For the same compound, the RPP ([1]; Memory) was 16.3 ± 3 bpm × mmHg × 10^3, the MAP ([1]; Memory, listed as desflurane) was “decrease in mean arterial pressure” and the HR ([1]; Reperfusion 1 h) was 201 ± 14 bpm. For the same compound, the MAP ([1]; Reperfusion 1 h) was 54 ± 7 mmHg, the RPP ([1]; Reperfusion 1 h) was 12.4 ± 0.4 bpm × mmHg × 10^3 and the RPP ([1]; Reperfusion 1 h, listed as desflurane) was “decreased”. For the same compound, the HR ([1]; Reperfusion 2 h) was 216 ± 6 bpm, the MAP ([1]; Reperfusion 2 h) was 58 ± 8 mmHg and the RPP ([1]; Reperfusion 2 h) was 15 ± 2.1 bpm × mmHg × 10^3. It also gave an HR ([1]; Reperfusion 3 h) of 219 ± 7 bpm, an MAP ([1]; Reperfusion 3 h) of 54 ± 5 mmHg and an RPP ([1]; Reperfusion 3 h) of 14.2 ± 1.4 bpm × mmHg × 10^3. It also gave an HR [1, 5] of 261 ± 11 bpm, a PaCO2 ([2]; Baseline) of 29 ± 2 mmHg and a PaO2 ([2]; Baseline) of 158 ± 23 mmHg. For the same compound, the PaCO2 ([2]; Infusion) was 32 ± 3 mmHg, the PaO2 ([2]; Infusion) was 157 ± 17 mmHg and the PaCO2 ([2]; Ischemia 30 min) was 31 ± 3 mmHg. For the same compound, the PaO2 ([2]; Ischemia 30 min) was 136 ± 24 mmHg, the PaCO2 ([2]; Memory) was 34 ± 3 mmHg and the PaO2 ([2]; Memory) was 143 ± 17 mmHg. It also gave a PaCO2 ([2]; Reperfusion 1 h) of 30 ± 4 mmHg, a PaO2 ([2]; Reperfusion 1 h) of 141 ± 19 mmHg and a PaCO2 ([2]; Reperfusion 2 h) of 26 ± 3 mmHg. It also gave a PaO2 ([2]; Reperfusion 2 h) of 155 ± 18 mmHg, a PaCO2 ([2]; Reperfusion 3 h) of 30 ± 1 mmHg and a PaO2 ([2]; Reperfusion 3 h) of 165 ± 12 mmHg. For the same compound, the pH ([2]; Baseline) was 7.45 ± 0.02, the pH ([2]; Infusion) was 7.40 ± 0.02 and the pH ([2]; Ischemia 30 min) was 7.34 ± 0.01. It also gave a pH ([2]; Memory) of 7.36 ± 0.02, a pH ([2]; Reperfusion 1 h) of 7.37 ± 0.02 and a pH ([2]; Reperfusion 2 h) of 7.40 ± 0.01. It also gave a pH ([2]; Reperfusion 3 h) of 7.41 ± 0.01, an EtCO2 (End-tidal gas analysis; Baseline) of 31 ± 2 mmHg and an EtCO2 (End-tidal gas analysis; Infusion) of 30 ± 2 mmHg. It also gave an EtCO2 (End-tidal gas analysis; Ischemia 30 min) of 26 ± 3 mmHg, an EtCO2 (End-tidal gas analysis; Memory) of 28 ± 3 mmHg and an EtCO2 (End-tidal gas analysis; Reperfusion 1 h) of 29 ± 4 mmHg. For the same compound, the EtCO2 (End-tidal gas analysis; Reperfusion 2 h) was 28 ± 3 mmHg, the EtCO2 (End-tidal gas analysis; Reperfusion 3 h) was 29 ± 3 mmHg and the EtHalogenated (End-tidal gas analysis; Baseline) was 0%. For the same compound, the EtHalogenated (End-tidal gas analysis; Infusion) was 0.37 ± 0.03 %, the EtHalogenated (End-tidal gas analysis; Ischemia 30 min) was 0.01 ± 0.00% and the EtHalogenated (End-tidal gas analysis; Memory) was 0.03 ± 0.01%. For the same compound, the EtHalogenated (End-tidal gas analysis; Reperfusion 1 h) was 0.00 ± 0.00%, the EtHalogenated (End-tidal gas analysis; Reperfusion 2 h) was 0.00 ± 0.00% and the EtHalogenated (End-tidal gas analysis; Reperfusion 3 h) was 0.00 ± 0.00%. For the same compound, the “Blood Concentration” value ([3]; Baseline) was 0 µM, the “Blood Concentration” value [3, 6] was 180 ± 30 µM and the “Blood Concentration” value [3, 7] was 30 ± 20 µM. The “Observed Blood Concentration following 30 min, 10 mL/h Infusion” value ([3]; i.v. emulsion) was 0.18 mM, the “Observed Blood Concentration following 30 min, 10 mL/h Infusion” value [3, 8] was 0.13 MAC-Equivalents and the “Partition Coefficient ("λ")” value [4] was 0.42.
In the case of FC(F)OC(Cl)C(F)(F)F (stereo not shown) [ISO, isoflurane], the MAP ([1]; Baseline) is reported as 64 ± 5 mmHg, the RPP ([1]; Baseline) is reported as 17.7 ± 2 bpm × mmHg × 10^3 and the HR ([1]; Infusion) is reported as 227 ± 14 bpm. For the same compound, the MAP ([1]; Infusion) was 57 ± 6 mmHg, the RPP ([1]; Infusion) was 16.2 ± 2.2 bpm × mmHg × 10^3 and the MAP ([1]; Infusion, listed as isoflurane) was “decreased”. For the same compound, the HR ([1]; Ischemia 30 min) was 220 ± 11 bpm, the MAP ([1]; Ischemia 30 min) was 54 ± 5 mmHg and the RPP ([1]; Ischemia 30 min) was 14.3 ± 1.6 bpm × mmHg × 10^3. The HR ([1]; Memory) was 229 ± 10 bpm, the MAP ([1]; Memory) was 62 ± 6 mmHg and the RPP ([1]; Memory) was 16.7 ± 2 bpm × mmHg × 10^3. It also gave an HR ([1]; Reperfusion 1 h) of 212 ± 4 bpm, an MAP ([1]; Reperfusion 1 h) of 52 ± 3 mmHg and an RPP ([1]; Reperfusion 1 h) of 13.3 ± 0.8 bpm × mmHg × 10^3. For the same compound, the RPP ([1]; Reperfusion 1 h, listed as isoflurane) was “decreased”, the HR ([1]; Reperfusion 2 h) was 201 ± 6 bpm and the MAP ([1]; Reperfusion 2 h) was 54 ± 3 mmHg. For the same compound, the RPP ([1]; Reperfusion 2 h) was 13.2 ± 1 bpm × mmHg × 10^3, the HR ([1]; Reperfusion 3 h) was 195 ± 7 bpm and the MAP ([1]; Reperfusion 3 h) was 58 ± 3 mmHg. For the same compound, the RPP ([1]; Reperfusion 3 h) was 13.5 ± 1 bpm × mmHg × 10^3, the HR [1, 5] was 240 ± 9 bpm and the PaCO2 ([2]; Baseline) was 34 ± 2 mmHg. It also gave a PaO2 ([2]; Baseline) of 136 ± 17 mmHg, a PaCO2 ([2]; Infusion) of 34 ± 2 mmHg and a PaO2 ([2]; Infusion) of 124 ± 11 mmHg. For the same compound, the PaCO2 ([2]; Ischemia 30 min) was 33 ± 2 mmHg, the PaO2 ([2]; Ischemia 30 min) was 166 ± 24 mmHg and the PaCO2 ([2]; Memory) was 36 ± 2 mmHg. For the same compound, the PaO2 ([2]; Memory) was 146 ± 15 mmHg, the PaCO2 ([2]; Reperfusion 1 h) was 31 ± 2 mmHg and the PaO2 ([2]; Reperfusion 1 h) was 167 ± 12 mmHg. For the same compound, the PaCO2 ([2]; Reperfusion 2 h) was 32 ± 2 mmHg, the PaO2 ([2]; Reperfusion 2 h) was 169 ± 12 mmHg and the PaCO2 ([2]; Reperfusion 3 h) was 33 ± 2 mmHg. It also gave a PaO2 ([2]; Reperfusion 3 h) of 160 ± 13 mmHg, a pH ([2]; Baseline) of 7.43 ± 0.02 and a pH ([2]; Infusion) of 7.40 ± 0.03. It also gave a pH ([2]; Ischemia 30 min) of 7.36 ± 0.02, a pH ([2]; Memory) of 7.36 ± 0.02 and a pH ([2]; Reperfusion 1 h) of 7.39 ± 0.02. The pH ([2]; Reperfusion 2 h) was 7.39 ± 0.02, the pH ([2]; Reperfusion 3 h) was 7.39 ± 0.01 and the EtCO2 (End-tidal gas analysis; Baseline) was 34 ± 1 mmHg. The EtCO2 (End-tidal gas analysis; Infusion) was 34 ± 1 mmHg, the EtCO2 (End-tidal gas analysis; Ischemia 30 min) was 30 ± 2 mmHg and the EtCO2 (End-tidal gas analysis; Memory) was 33 ± 2 mmHg. It also gave an EtCO2 (End-tidal gas analysis; Reperfusion 1 h) of 27 ± 2 mmHg, an EtCO2 (End-tidal gas analysis; Reperfusion 2 h) of 28 ± 2 mmHg and an EtCO2 (End-tidal gas analysis; Reperfusion 3 h) of 30 ± 2 mmHg. For the same compound, the EtHalogenated (End-tidal gas analysis; Baseline) was 0%, the EtHalogenated (End-tidal gas analysis; Infusion) was 0.31 ± 0.02% and the EtHalogenated (End-tidal gas analysis; Ischemia 30 min) was 0.00 ± 0.00%. For the same compound, the EtHalogenated (End-tidal gas analysis; Memory) was 0.02 ± 0.01%, the EtHalogenated (End-tidal gas analysis; Reperfusion 1 h) was 0.00 ± 0.00% and the EtHalogenated (End-tidal gas analysis; Reperfusion 2 h) was 0.00 ± 0.00%. The EtHalogenated (End-tidal gas analysis; Reperfusion 3 h) was 0.00 ± 0.00%, the “Blood Concentration” value ([3]; Baseline) was 0 µM and the “Blood Concentration” value [3, 6] was 180 ± 60 µM. The “Blood Concentration” value [3, 7] was 40 ± 20 µM, the “Observed Blood Concentration following 30 min, 10 mL/h Infusion” value ([3]; i.v. emulsion) was 0.18 mM and the “Observed Blood Concentration following 30 min, 10 mL/h Infusion” value [3, 8] was 0.17 MAC-Equivalents. The “Partition Coefficient ("λ")” value [4] was 1.4.
